# Source: patent US6359130B1, “Bridged indenopyrrolocarbazoles” (Cephalon, Inc., priority 1998, dated 2002)
# Legend:
# [1] = target: T1, VEGF receptor (human flk-1, KDR, VEGFR2) kinase domain (Homo sapiens, UniProt P35968); experiment: Inhibition of VEGF receptor kinase activity (ELISA); format: biochemical; conditions: 40 μM ATP; read-out: VEGFR kinase IC50
# T1 construct: VEGF receptor (human flk-1, KDR, VEGFR2) kinase domain; made in house; host or cells: baculovirus expression system
# Experimental: Bridged indenopyrrolocarbazole compounds were examined for their inhibitory effects on the kinase activity of baculovirus-expressed VEGF receptor (human flk-1, KDR, VEGFR2) kinase domain using the procedure described for the trkA kinase ELISA assay described above. The kinase reaction mixture, consisting of 50 mM Hepes, pH 7.4, 40 μM ATP, 10 mM MnCl2, 0.1% BSA, 2% DMSO, and various concentrations of inhibitor, was transferred to PLC-γ/GST-coated plates. VEGFR kinase was added and the reaction was allowed to proceed for 15 min. at 37° C. Detection of phosphorylated product was accomplished by addition of anti-phosphotyrosine antibody (UBI). A secondary enzyme-conjugated antibody was delivered to capture the antibody-phosphorylated PLC-γ/GST complex. The activity of the bound enzyme was measured via an amplified detection system (Gibco-BRL). Inhibition data were analyzed using the sigmoidal dose-response (variable slope) equation in GraphPad Prism.
# [2] = target: T2, PDGFβ receptor kinase domain (Homo sapiens, UniProt P09619); experiment: Inhibition of PDGF receptor kinase activity (ELISA); format: biochemical; conditions: for PDGFR % Inh. @ 1 μM / inhibition at 1 µM: values in parentheses; for IC50: 20 μM ATP, read-out: PDGFR IC50; for inhibition at 1 µM: read-out: PDGFR % Inh. @ 1 μM
# T2 construct: baculovirus-expresses PDGFβ receptor kinase domain; made in house; host or cells: baculovirus expression system
# T2 sequence (P09619 600-962 limits assumed): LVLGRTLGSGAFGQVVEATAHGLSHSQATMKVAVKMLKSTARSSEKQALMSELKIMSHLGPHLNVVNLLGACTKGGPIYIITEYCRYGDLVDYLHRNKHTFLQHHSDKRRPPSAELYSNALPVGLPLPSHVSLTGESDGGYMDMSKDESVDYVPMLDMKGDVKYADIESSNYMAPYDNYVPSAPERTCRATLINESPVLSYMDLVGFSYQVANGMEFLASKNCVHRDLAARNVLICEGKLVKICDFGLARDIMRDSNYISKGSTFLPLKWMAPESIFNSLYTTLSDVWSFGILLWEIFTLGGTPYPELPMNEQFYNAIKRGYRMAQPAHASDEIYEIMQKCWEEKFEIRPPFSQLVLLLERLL
# Experimental: Bridged indenopyrrolocarbazole compounds were examined for their inhibitory effects on the kinase activity of baculovirus-expresses PDGFβ receptor kinase domain using the trkA kinase ELISA described above. Assays were performed in substrate (PLC-γ/GST)-coated 96-well microtiter plates. Each 100-μl reaction mixture contained 50 mM HEPES, pH 7.4, 20 μM ATP, 10 mM MnCl2, 0.1% BSA, 2% DMSO, and various concentrations of inhibitor. The reaction was initiated by addition of prephosphorylated recombinant human enzyme (10 ng/ml PDGFRβ) and allowed to proceed for 15 minutes at 37° C. The prephosphorylated enzyme was prepared prior to use by incubation of the kinase in buffer containing 20 μM ATP and 10 mM MnCl2 for 1 hour at 4° C. Detection of phosphorylated product was done by adding horseradish peroxidase (HRP)-conjugated anti-phosphotyrosine antibody (UBI). The HRP substrate solution containing 3, 3′-5, 5′-tetramethylbenzidine and hydrogen peroxide was later added and the plates were incubated for 10 minutes at room temperature. The reaction was quenched with acid and the resulting absorbance was read at 450 nm using a Microplate Bio-kinetics Reader (Bio-Tek Instrument EL 312e). Inhibition data were analyzed using the sigmoidal dose-response (variable slope) equation in GraphPad Prism.
# [3] = target: T3, baculovirus-expressed human trkA cytoplasmic domain (Homo sapiens, UniProt P04629); experiment: Inhibition of trkA tyrosine kinase activity (ELISA-based assay); format: biochemical; conditions: for IC50: 40 μM ATP; for inhibition at 0.3 µM: read-out: trkA % inh @ 300 nM
# T3 construct: baculovirus-expressed human trka cytoplasmic domain; made in house; host or cells: baculovirus expression system
# T3 sequence (P04629 440-796 limits assumed): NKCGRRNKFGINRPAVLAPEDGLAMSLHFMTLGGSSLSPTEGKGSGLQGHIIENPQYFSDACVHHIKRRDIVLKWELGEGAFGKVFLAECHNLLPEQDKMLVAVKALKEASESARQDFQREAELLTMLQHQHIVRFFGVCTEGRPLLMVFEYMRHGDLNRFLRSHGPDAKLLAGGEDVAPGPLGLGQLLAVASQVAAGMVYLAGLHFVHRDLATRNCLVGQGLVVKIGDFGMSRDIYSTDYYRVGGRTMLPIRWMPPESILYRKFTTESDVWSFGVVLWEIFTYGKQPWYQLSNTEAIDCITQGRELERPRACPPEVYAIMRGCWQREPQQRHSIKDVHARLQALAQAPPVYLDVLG
# Experimental: Selected bridged indenopyrrolocarbazole compounds were tested for their ability to inhibit the kinase activity of baculovirus-expressed human trka cytoplasmic domain using an ELISA-based assay as previously described (Angeles et al., Anal. Biochem. 236: 49-55, 1996). Briefly, the 96-well microtiter plate was coated with substrate solution (recombinant human phospholipase C-γl/glutathione S-transferase fusion protein (Rotin et al., EMBO J., 11: 559-567, 1992). Inhibition studies were performed in 100 μl assay mixtures containing 50 mM Hepes, pH 7.4, 40 μM ATP, 10 mM MnCl2, 0.1% BSA, 2% DMSO, and various concentrations of inhibitor. The reaction was initiated by addition of trkA kinase and allowed to proceed for 15 minutes at 37° C. An antibody to phosphotyrosine (UBI) was then added, followed by a secondary enzyme-conjugated antibody, alkaline phosphatase-labelled goat anti-mouse IgG (Bio-Rad). The activity of the bound enzyme was measured via an amplified detection system (Gibco-BRL). Inhibition data were analyzed using the sigmoidal dose-response (variable slope) equation in GraphPad Prism.
# [4] = tested on: protein kinase C (mixed isozymes of a, b, g); experiment: Inhibition of protein kinase C activity (Millipore Multiscreen TCA in-plate assay); format: biochemical; conditions: for PKC % Inh. @ 1 uM: values in parentheses; for IC50: read-out: PKC IC50
# Experimental: Protein kinase C activity was assessed using the Millipore Multiscreen TCA “in-plate” assay as described in Pitt, A. M. and Lee, C. (J. Biomol. Screening, 1: 47-51, 1996). Assays were performed in 96-well Multiscreen-DP plates (Millipore). Each […] assay mixture contained 20 mM Hepes, pH 7.4, 10 mM MgCl2, 2.5 mM EGTA, 2.5 mM CaCl2, 80 mg/ml phosphatidyl serine, 3.2 mg/ml diolein, 200 mg/ml histone H-1(Fluka), 5 mM [γ-^32P]ATP, 1.5 ng protein kinase C (UBI; mixed isozymes of a, b, g), 0.1% BSA, 2% DMSO, and test bridged fused pyrrolocarbazole compound. The reaction was allowed to proceed for 10 min at 37° C., then quenched by adding ice cold 50% trichloroacetic acid. The plates were allowed to equilibrate for 30 min at 4° C., then washed with ice cold 25% TCA. Scintillation cocktail was added to the plates, and the radioactivity was determined using Wallac MicroBeta 1450 PLUS scintillation counter. The IC50 values were calculated by fitting the data to the sigmoidal dose-response (variable slope) equation in GraphPad Prism.
# [5] = target: T4, trkA in NIH3T3 cells transfected with trkA (Homo sapiens, UniProt P04629); experiment: Inhibition of NGF-stimulated trk phosphorylation in a whole cell preparation; format: cell-based; set-up: key to Inhibition Score at 100 nM: 0=no decrease; 1=1-25%; 2=26-49%; 3=50-75%; 4=76-100%; conditions: NGF 10 ng/ml, percent decrease in trk protein band; for Inhibition Score at 100 nM: 100 nM compound; for Inhibition Score at 1000 nM: 1000 nM compound
# T4 construct: expressed in transfected cells; host or cells: NIH3T3 cells
# T4 sequence (P04629 33-796): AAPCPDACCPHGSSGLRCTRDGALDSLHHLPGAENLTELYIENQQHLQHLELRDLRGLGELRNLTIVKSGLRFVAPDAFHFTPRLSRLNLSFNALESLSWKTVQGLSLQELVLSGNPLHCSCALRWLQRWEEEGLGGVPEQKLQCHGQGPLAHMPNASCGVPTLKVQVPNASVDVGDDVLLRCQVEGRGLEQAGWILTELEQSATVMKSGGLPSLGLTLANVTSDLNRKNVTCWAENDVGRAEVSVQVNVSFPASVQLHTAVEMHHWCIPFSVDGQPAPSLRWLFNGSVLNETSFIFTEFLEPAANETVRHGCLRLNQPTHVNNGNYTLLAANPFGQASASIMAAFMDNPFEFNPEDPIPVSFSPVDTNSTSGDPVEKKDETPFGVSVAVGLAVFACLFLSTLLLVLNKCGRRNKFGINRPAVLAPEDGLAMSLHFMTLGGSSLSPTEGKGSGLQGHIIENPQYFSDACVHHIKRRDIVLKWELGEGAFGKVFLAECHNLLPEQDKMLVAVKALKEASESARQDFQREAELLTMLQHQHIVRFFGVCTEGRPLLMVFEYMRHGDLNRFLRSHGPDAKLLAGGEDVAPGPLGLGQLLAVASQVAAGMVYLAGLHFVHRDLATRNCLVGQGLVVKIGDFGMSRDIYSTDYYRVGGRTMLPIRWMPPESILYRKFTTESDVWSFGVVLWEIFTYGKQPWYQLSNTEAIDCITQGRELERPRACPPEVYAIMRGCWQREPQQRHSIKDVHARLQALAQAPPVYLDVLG
# Experimental: NIH3T3 cells transfected with trkA were grown in 100 mm dishes. Subconfluent cells were serum-starved by replacing media with serum-free 0.05% BSA-DMEM containing compound (100 nM and 1 μM) or DMSO (added to controls) for one hour at 37° C. NGF (Harlan/Bioproducts for Science) was then added to the cells at a concentration of 10 ng/ml for 5 minutes. Cells were lysed in buffer containing detergent and protease inhibitors. Clarified cell lysates were normalized to protein using BCA method and immunoprecipitated with anti-trk antibody. Polyclonal anti-trk antibody was prepared against a peptide corresponding to the 14 amino acids at the carboxy terminus of trk (Martin-Zanca et al., Mol. Cell. Biol. 9: 24-33, 1989). The immune complexes were collected on Protein A Sepharose beads (Sigma Chem. Co., St. Lois, Mo.), separated by SDS polyacrylamide gel electrophoresis (SDS-PAGE), and transferred to a polyvinylidene difluoride (PVDF) membrane. The membrane was immunoblotted with anti-phosphotyrosine antibody (UBI), followed by incubation with horseradish peroxidase coupled goat anti-mouse IgG (Bio-Rad Laboratories, Hercules, Calif.). Phosphorylated proteins were visualized using ECL (Amersham Lite Science, Inc., Arlington Heights, Ill.). The area of the trk protein band was measured and compared to NGF-stimulated control. The inhibition scoring system used, based on percent decrease in trk protein band, was as follows: 0=no decrease; 1=1-25%; 2=26-49%; 3=50-75%; 4=76-100% Results are shown below in Table 3.
# Spinal Cord ChAT = experiment: Enhancement of spinal cord ChAT activity in dissociated rat embryonic spinal cord culture; format: cell-based
# Experimental: For example, In these assays, a compound was directly added to a dissociated spinal cord culture. Compounds which increased ChAT activity at least 120% of the control activity were considered active.
# Methods: Fetal rat spinal cord cells were dissociated, and experiments were performed as described (Smith et al., J. Cell Biology 101:1608-1621(1985); Glicksman et al., J. Neurochem. 61:210-221(1993) ). Dissociated cells were prepared from spinal cords dissected from rats (embryonic day 14-15) by standard trypsin dissociation techniques (Smith et al., supra.). Cells were plated at 6×10^5 cells/cm^2 on poly-1-ornithine coated plastic tissue culture wells in serum-free N2 medium supplemented with 0.05% bovine serum albumin (BSA) (Bottenstein et al., PNAS USA 76:514-517 (1979) ). Cultures were incubated at 37° C. in a humidified atmosphere of 5% CO2/95% air for 48 hours. ChAT activity was measured after 2 days in vitro using a modification of the Fonnum procedure (Fonnum, J. Neurochem. 24:407-409 (1975) ) according to McManaman et al. and Glicksman et al. (McManaman et al., Developmental Biology 125:311-320(1988); Glicksman et al., J. Neurochem., supra.).
# T1 sequence (P35968 834-1162 limits assumed): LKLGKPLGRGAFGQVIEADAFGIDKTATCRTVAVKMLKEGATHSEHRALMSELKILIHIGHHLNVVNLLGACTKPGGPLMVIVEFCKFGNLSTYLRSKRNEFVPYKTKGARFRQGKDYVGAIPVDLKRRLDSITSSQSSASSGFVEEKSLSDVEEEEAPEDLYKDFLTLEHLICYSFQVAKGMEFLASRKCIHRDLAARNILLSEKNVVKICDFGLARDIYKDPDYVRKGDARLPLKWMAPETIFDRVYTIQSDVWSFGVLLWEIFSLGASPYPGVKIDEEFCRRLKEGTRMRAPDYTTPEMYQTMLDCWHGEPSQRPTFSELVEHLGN
IC50 [1],PDGFR % Inh. @ 1 μM [2],IC50 [3],PKC % Inh. @ 1 uM [4],Inhibition Score at 100 nM [5],Inhibition Score at 1000 nM [5],IC50 [4],SMILES,further results
17 nM,(0) %,76 nM,(18) %,,,,"CC12CCCC(O1)n1c3ccccc3c3c4c(c5c(c31)C2c1ccccc1-5)C(=O)NC4 (single isomer, unassigned) [II-4a]",
87 nM,(36) %,11 nM,,3 (3=50-75%),4 (4=76-100%),696 nM,"CC12COCC(O1)n1c3ccccc3c3c4c(c5c(c31)C2c1ccccc1-5)C(=O)NC4 (single isomer, unassigned) [II-7a]",
71 nM,(28) %,9 nM,(23) %,1 (1=1-25%),4 (4=76-100%),,CC12CCC(O1)n1c3ccccc3c3c4c(c5c(c31)C2c1ccccc1-5)C(=O)NC4 (centres unmarked) [II-3],
260 nM,,5 nM,,3 (3=50-75%),4 (4=76-100%),568 nM,CC12COCC(O1)n1c3ccccc3c3c4c(c5c(c31)C2c1ccccc1-5)C(=O)NC4 (centres unmarked) [II-7b],inhibition at 1 µM [2]: 34%
26 nM,,254 nM,,,,1080 nM,O=C1NCc2c3c4c5c(c21)c1ccccc1n5C1CCC(O1)C4c1ccccc1-3 (centres unmarked) [II-8],inhibition at 1 µM [2]: 15%
20 nM,,17 nM,,,,518 nM,O=C1NCc2c1c1c3c4c2c2ccccc2n4C2CCC(CO)(O2)C3c2ccccc2-1 (centres unmarked) [II-12],IC50 [2]: 125 nM

# More lines, now with the values behind:
SMILES,IC50 [1],PDGFR % Inh. @ 1 μM [2],IC50 [3],PKC % Inh. @ 1 uM [4],Inhibition Score at 100 nM [5],Inhibition Score at 1000 nM [5],IC50 [4],further results
"O=C1NCc2c1c1c3c4c2c2ccccc2n4C2CCC(O2)C3c2ccccc2-1 (single isomer, unassigned) [II-1b]",67 nM,,,,,,,
"CC12CCCC(O1)n1c3ccccc3c3c4c(c5c(c31)C2c1ccccc1-5)C(=O)NC4 (single isomer, unassigned) [II-4b]",184 nM,(17) %,16 nM,(28) %,0,2 (2=26-49%),,
O=C1NCc2c1c1c3c4c2c2ccccc2n4C2CCC(O2)C3c2ccccc2-1 (centres unmarked) [II-1],30 nM,,13 nM,,3 (3=50-75%),4 (4=76-100%),1300 nM,"IC50 [2]: 1380 nM; Spinal Cord ChAT Activity at 30 nM (Spinal Cord ChAT; 30 nM, active if at least 120% of control): 114 % control; Spinal Cord ChAT Maximal Activity (Spinal Cord ChAT; concentration of maximal activity printed in cell (300 nM)): 139 @ 300 nM % control"
CCC12c3ccccc3-c3c4c(c5c6ccccc6n(c5c31)C1CCC2O1)CNC4=O (centres unmarked) [II-2],> 10000 nM,,,(−9) %,,,,"inhibition at 1 µM [2]: 7%; inhibition at 0.3 µM ([3]; 300 nM, values in parentheses): 20%"
CC12CCC(O1)n1c3ccc(Br)cc3c3c4c(c5c(c31)C2c1ccccc1-5)C(=O)NC4 (centres unmarked) [II-5],398 nM,,72 nM,(37) %,,,,IC50 [2]: 1080 nM
Nc1cccc(-c2ccc3c(c2)c2c4c(c5c6c2n3C2CCC(O2)C6c2ccccc2-5)C(=O)NC4)c1 (centres unmarked) [II-9],318 nM,,,(5) %,,,,"inhibition at 1 µM [2]: 24%; inhibition at 0.3 µM ([3]; 300 nM, values in parentheses): 34%"
O=C1NC(=O)c2c1c1c3c4c2c2ccccc2n4C2CCC(O2)C3(O)c2ccccc2-1 (centres unmarked) [II-10],601 nM,(23) %,,(5) %,,,,"trkA % inh @ 300 nM ([3]; 300 nM, values in parentheses): (17) %"
CCOC(=O)C12CCC(O1)n1c3ccccc3c3c4c(c5c(c31)C2c1ccccc1-5)C(=O)NC4 (centres unmarked) [II-11],205 nM,(15) %,121 nM,(19) %,,,,
COc1ccc2c(c1)-c1c3c(c4c5ccccc5n5c4c1C2C1CCC5O1)CNC3=O (centres unmarked) [II-13],8 nM,,,,,,576 nM,IC50 [2]: 1230 nM
